# Data reported in PubChem BioAssay AID504627 (NMMLSC, 2011).
# Active and inactive are the calls of the source.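 The calls were made as follows: active = polarization drop versus untreated control wells larger than 25 mP; inactive = the rest.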
# How the values were obtained:
# Test in all cases: BclXL, Bcl2, Bfl1, BclB binding displacement – biochemical, fluorescence polarization, powder compounds set 1, panel, dose response (AID 504627)
# [1] = target: Bcl-2-like protein 1 (Homo sapiens) (UniProt Q07817); settings: GST-Bcl-2 family protein, FITC-peptide fluorescence polarization, BclXL; for polarization signal (mP), lower = inhibition: at 50 µM (top of the series)
# [2] = target: Apoptosis regulator Bcl-2 (Homo sapiens) (UniProt P10415); settings: GST-Bcl-2 family protein, FITC-peptide fluorescence polarization, Bcl2; for polarization signal (mP), lower = inhibition: at 50 µM (top of the series)
# [3] = target: Bcl-2-like protein 10 (Homo sapiens) (UniProt Q9HD36); settings: GST-Bcl-2 family protein, FITC-peptide fluorescence polarization, BclB; for polarization signal (mP), lower = inhibition: at 50 µM (top of the series)
# [4] = target: Bcl-2-related protein A1 (Homo sapiens) (UniProt Q16548); settings: GST-Bcl-2 family protein, FITC-peptide fluorescence polarization, Bfl1; for polarization signal (mP), lower = inhibition: at 50 µM (top of the series)
# Sequence of Bcl-2-related protein A1 (Homo sapiens) (Q16548 whole entry, looked up): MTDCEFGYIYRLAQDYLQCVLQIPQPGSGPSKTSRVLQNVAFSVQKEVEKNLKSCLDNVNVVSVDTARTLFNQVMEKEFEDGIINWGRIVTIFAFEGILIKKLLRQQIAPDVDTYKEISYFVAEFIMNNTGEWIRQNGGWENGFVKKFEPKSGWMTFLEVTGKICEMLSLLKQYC
# Sequence of Bcl-2-like protein 1 (Homo sapiens) (Q07817 whole entry, looked up): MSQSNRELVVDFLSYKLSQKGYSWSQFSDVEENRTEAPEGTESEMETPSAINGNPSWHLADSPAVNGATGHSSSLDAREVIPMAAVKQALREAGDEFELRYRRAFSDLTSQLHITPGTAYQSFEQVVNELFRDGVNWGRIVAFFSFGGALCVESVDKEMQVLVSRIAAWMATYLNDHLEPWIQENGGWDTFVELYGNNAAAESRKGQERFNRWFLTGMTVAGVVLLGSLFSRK
# Sequence of Bcl-2-like protein 10 (Homo sapiens) (Q9HD36 whole entry, looked up): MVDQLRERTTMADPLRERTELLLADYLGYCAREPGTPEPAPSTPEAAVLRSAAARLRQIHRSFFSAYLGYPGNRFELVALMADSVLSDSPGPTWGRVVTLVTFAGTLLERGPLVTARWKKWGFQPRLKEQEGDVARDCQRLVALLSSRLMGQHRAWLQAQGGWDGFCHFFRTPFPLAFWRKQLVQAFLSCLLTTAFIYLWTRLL
# Sequence of Apoptosis regulator Bcl-2 (Homo sapiens) (P10415 whole entry, looked up): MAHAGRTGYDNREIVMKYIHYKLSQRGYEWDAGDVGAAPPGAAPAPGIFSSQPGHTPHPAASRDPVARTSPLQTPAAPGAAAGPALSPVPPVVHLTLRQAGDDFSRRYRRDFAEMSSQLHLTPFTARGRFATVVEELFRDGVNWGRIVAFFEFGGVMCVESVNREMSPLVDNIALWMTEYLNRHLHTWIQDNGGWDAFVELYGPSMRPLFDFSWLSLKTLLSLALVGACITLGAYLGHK
Compound,"polarization signal (mP), lower = inhibition [1]","polarization signal (mP), lower = inhibition [2]","polarization signal (mP), lower = inhibition [3]","polarization signal (mP), lower = inhibition [4]",IC50 [3] [µM],IC50 [1] [µM],IC50 [2] [µM],IC50 [4] [µM]
Cc1ccc(-c2cc(-c3ccc(F)cc3)c(C#N)c(N)n2)o1,inactive,inactive,inactive,inactive,–,–,–,–
Cc1cc(-c2cc(-c3ccc(Cl)cc3)nc(N)c2C#N)co1,inactive,inactive,inactive,inactive,–,–,–,–
Cc1ccc(-c2cc(-c3ccc(C)o3)nc(N)c2C#N)cc1,inactive,inactive,inactive,inactive,–,–,–,–
Cc1ccc(C=NNC(=O)CSc2nnc(-c3ccc(Cl)cc3)n2-c2ccccc2)o1,inactive,inactive,–,inactive,8.58,–,–,–
O=c1c2c(n3nnnc3n1Cc1ccccc1)-c1ccccc1CC21CCCC1,inactive,inactive,–,inactive,1.13,–,–,–
COc1ccccc1-n1c(-c2ccccc2)c[nH]c1=S,inactive,inactive,inactive,inactive,–,–,–,–
Oc1ccc(NCc2ccccc2OCc2ccccc2)cc1,inactive,inactive,inactive,inactive,–,–,–,–
O=C1C(Cl)=C(N2CCN(c3ccccc3[N+](=O)[O-])CC2)C(=O)c2ccccc21,–,–,–,–,3.99,4.4,5.64,2.73
O=C1NC(=O)C2(Cc3c(nc4ccccn4c3=O)N3CCCCCC32)C(=O)N1Cc1ccccc1 (stereo not given),inactive,inactive,–,inactive,1.16,–,–,–
CNC(CC(=O)c1ccc([N+](=O)[O-])cc1)C(Cl)(Cl)Cl (stereo not given),inactive,inactive,inactive,inactive,–,–,–,–
